# Test results: paper PMC10439230 (Scientific Reports, 2023)
# Legend:
# [1] = system: HuCCA-1 (cholangiocarcinoma derived from a patient); assay: Cytotoxic activity assay (MTT); type: cell-based, human; conditions: for IC50: Homo sapiens, HuCC-A1, 48 h exposure, MTT, read-out: Cell lines, IC50 (μM) HuCCA-1; for Selectivity Index (SI) values HuCCA-1: SI = IC50 normal cell (MRC-5)/ IC50 cancer cell
# In short: (§1)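 48 h continuous compound exposure in adherent cancer cell lines, seeded 5000–20,000 cells/well; endpoint by MTT colorimetry at 550 nm.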
# [2] = system: T-47D (hormone-dependent breast cancer); assay: Cytotoxic activity assay (MTT); type: cell-based, human; conditions: for IC50: Homo sapiens, T47D, 48 h exposure, MTT, read-out: Cell lines, IC50 (μM) T47-D; for Selectivity Index (SI) values T47-D: SI = IC50 normal cell (MRC-5)/ IC50 cancer cell
# In short: as §1
# [3] = system: HepG2 (hepatocellular carcinoma); assay: Cytotoxic activity assay (MTT); type: cell-based, human; conditions: for IC50: Homo sapiens, HepG2, 48 h exposure, MTT, read-out: Cell lines, IC50 (μM) HepG2; for Selectivity Index (SI) values HepG2: SI = IC50 normal cell (MRC-5)/ IC50 cancer cell
# In short: as §1
# [4] = system: H69AR (multidrug-resistant small cell lung carcinoma); assay: Cytotoxic activity assay (MTT); type: cell-based, human; conditions: for IC50: Homo sapiens, H69AR, 48 h exposure, MTT, read-out: Cell lines, IC50 (μM) H69AR; for Selectivity Index (SI) values H69AR: SI = IC50 normal cell (MRC-5)/ IC50 cancer cell
# In short: as §1
# [5] = system: HeLa (cervical carcinoma); assay: Cytotoxic activity assay (MTT); type: cell-based, human; conditions: for IC50: Homo sapiens, 48 h exposure, MTT, read-out: Cell lines, IC50 (μM) HeLa; for Selectivity Index (SI) values HeLa: SI = IC50 normal cell (MRC-5)/ IC50 cancer cell
# In short: as §1
# [6] = system: A549 (lung adenocarcinoma); assay: Cytotoxic activity assay (MTT); type: cell-based, human; conditions: for IC50: Homo sapiens, A549, 48 h exposure, MTT, read-out: Cell lines, IC50 (μM) A549; for Selectivity Index (SI) values A549: SI = IC50 normal cell (MRC-5)/ IC50 cancer cell
# In short: as §1
# [7] = system: MDA-MB-231 (triple-negative breast cancer); assay: Cytotoxic activity assay (MTT); type: cell-based, human; conditions: for IC50: Homo sapiens, MDA-MB-231, 48 h exposure, MTT, read-out: Cell lines, IC50 (μM) MDA-MB-231; for Selectivity Index (SI) values MDA-MB-231: SI = IC50 normal cell (MRC-5)/ IC50 cancer cell
# In short: as §1
# phospho-ERK (T202/Y204) = assay: Western blot analysis of ERK phosphorylation; type: cell-based, human; conditions: MDA-MB-231 cells, 25–50 µM, 24 h
# Description: (§2) We further investigated targets of compound 4l on cell survival signaling pathways including EGFR, FAK, Akt, and ERK in MDA-MB-231 cells. After treatment with 4l at concentrations of 25–50 µM for 24 h, activation (phosphorylation) of the signaling pathways was determined by using western blot analysis.
# (§3) MDA-MB-231 cells in 6-well culture plates (1 × 10^6 cells/well) were treated with tested compounds for 24 h. Then the cells were harvested and western blot analysis was used to detect alteration of targeted proteins in the treated cells, as previously described. Briefly, the cells in 6-well culture plates were scraped in RIPA cell lysis buffer supplemented with protease/phosphatase inhibitor cocktail before being lysed by sonication. Cell lysates were centrifuged at 12,000×g for 5 min, at 4 °C, to remove cell debris. Total proteins (20 μg) in the cell lysates were separated by SDS-PAGE and blotted to PVDF membranes. The membranes were blocked with 3% (w/v) BSA and incubated overnight at 4 °C with primary antibodies specific to the following proteins: EGFR, phospho-EGFR (Y845), FAK, phospho-FAK (Y397), Akt, phospho-Akt (S473), ERK, and phospho-ERK (T202/Y204). […] Bands of specific proteins were detected by using SuperSignal™ ECL substrates and visualized on X-ray films.
# phospho-Akt (S473) = assay: Western blot analysis of Akt phosphorylation; type: cell-based, human; conditions: MDA-MB-231 cells, 25–50 µM, 24 h
# Description: as §2, §3
# [8] = system: MOLT-3 (T cell acute lymphoblastic leukemia); assay: Cytotoxic activity assay (XTT); type: cell-based, human; conditions: for IC50: Homo sapiens, MOLT-3, 48 h exposure, XTT, read-out: Cell lines, IC50 (μM) MOLT-3; for Selectivity Index (SI) values MOLT-3: SI = IC50 normal cell (MRC-5)/ IC50 cancer cell
# [9] = system: HL-60 (acute promyelocytic leukemia); assay: Cytotoxic activity assay (XTT); type: cell-based, human; conditions: for IC50: Homo sapiens, HL-60, 48 h exposure, XTT, read-out: Cell lines, IC50 (μM) HL-60; for Selectivity Index (SI) values HL-60: SI = IC50 normal cell (MRC-5)/ IC50 cancer cell
# In short: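 HL-60 human acute promyelocytic leukemia cells, handled as suspension cells, were plated in 96-well plates at 75 µL and 5000–20,000 cells per well. They were kept for 30 min at 37 °C in 95% humidity and 5% CO2. An equal volume of medium carrying test compound was then added for 48 h. Viability was measured by XTT: 75 µL reagent per well, 4 h incubation, and orange formazan absorbance read at 492 nm against a 690 nm reference.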
# phospho-FAK (Y397) = assay: Western blot analysis of FAK phosphorylation; type: cell-based, human; conditions: MDA-MB-231 cells, 24 h
# Description: as §2, §3
# phospho-EGFR (Y845) = assay: Western blot analysis of EGFR phosphorylation; type: cell-based, human; conditions: MDA-MB-231 cells, 25–50 µM, 24 h
# Description: as §2, §3
# MDA-MB-231 cells [10] = assay: Cell morphology of treated cells (microscopy); type: cell-based, human; conditions: MDA-MB-231, 25–50 µM
# Description: (§4) Mode of cell death induced by compound 4l was explored using MDA-MB-231 cells by observing change in cell morphology and flow cytometric analysis of annexin V/7-AAD double stained cells. […] Accidental cell death necrosis is typically indicated by the immediate production of bubbles on the cell surface after treatment. […] Additionally, vacuole accumulation was not observed in the treated cells until 48 h after treatment (Fig. 3a). Taken together, we hypothesized that 4l-induced cell death in MDA-MB-231 cells was not processed through necrosis or vacuole-presenting regulated cell death such as autophagy.
# MDA-MB-231 cells [11] = assay: Cell death analysis, annexin V/7-AAD double staining, flow cytometry; type: cell-based, human; conditions: for mode of cell death: MDA-MB-231 cells, 24–48 h treatment
# Description: as §4
# Briefly, MDA-MB-231 cells were seeded into 6-well culture plates at 1 × 10^6 cells/well and left in a CO2 incubator for 24 h. Subsequently, the cells were treated with tested compounds for 24–48 h. DMSO was used as a vehicle and its final concentration was kept at 0.2% (v/v) throughout the study. The treated cells were harvested by trypsinization and subjected to annexin V/7-AAD double staining using Muse® Annexin V & Dead Cell Kit as previously described. The stained cells were analyzed by flow cytometric technique using Muse® Cell Analyzer. Population of annexin V-positive cells was defined as early apoptotic cells, and the population positive for both annexin V and 7-AAD was defined as late apoptotic cells. The sequential events of increasing early and late apoptotic cell populations over time is a characteristic of apoptotic cell death.
# [12] = system: MRC-5 normal embryonic lung fibroblast cell line; assay: Cytotoxic activity assay (MTT), normal cells; type: cell-based; conditions: Homo sapiens, MRC5, 48 h exposure, read-out: Cell lines, IC50 (μM) MRC-5
# In short: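 Viability after 48 h compound treatment is determined by MTT reduction, with dissolved purple formazan read at 550 nm against a 650 nm reference. Adherent cells are seeded at 5000–20,000 per well and grown 24 h at 37 °C beforehand.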
Structure (SMILES),IC50 [1] [µM],Selectivity Index (SI) values HuCCA-1 [1],IC50 [2] [µM],Selectivity Index (SI) values T47-D [2],IC50 [3] [µM],Selectivity Index (SI) values HepG2 [3],IC50 [4] [µM],Selectivity Index (SI) values H69AR [4],IC50 [5] [µM],Selectivity Index (SI) values HeLa [5],IC50 [6] [µM],Selectivity Index (SI) values A549 [6],IC50 [7] [µM],Selectivity Index (SI) values MDA-MB-231 [7],IC50 [8] [µM],Selectivity Index (SI) values MOLT-3 [8],IC50 [9] [µM],Selectivity Index (SI) values HL-60 [9],mode of cell death (MDA-MB-231 cells [11]),IC50 [12] [µM],other results
"C=C1CC[C@H]2C(C)(C)CCC[C@]2(C)[C@H]1CC/C(C)=C/C(=O)NOC1CCCCO1 (stereo partly drawn) [Compound 4l, (E)-3-Methyl-N-((tetrahydro-2H-pyran-2-yl)oxy)-5-((1S,4aS,8aS)-5,5,8a-trimethyl-2-methylenedecahydronaphthalen-1-yl)pent-2-enamide]",58.67 ± 0.13,0.7,66.1 ± 6.39,0.6,73.5 ± 2.15,0.5,94.6 ± 1.67,0.4,26.44 ± 0.04,1.5,57.7 ± 1.2,0.7,13.73 ± 0.04,2.9,26.2 ± 1.76,1.5,21.4 ± 0.31,1.9,non-apoptotic regulated cell death,40.3 ± 2.11,"phosphorylation of ERK (phospho-ERK (T202/Y204)): not affected; phosphorylation of Akt (phospho-Akt (S473)): not affected; phosphorylation of FAK protein (phospho-FAK (Y397); 25–50 µM): selectively reduced; phosphorylation of EGFR (phospho-EGFR (Y845)): not affected; necrosis (immediate formation of bubbles on cell surface) (MDA-MB-231 cells [10]; 24–48 h): did not induce necrosis; vacuole accumulation (MDA-MB-231 cells [10]; until 48 h after treatment): not observed; late apoptotic cell population (MDA-MB-231 cells [11]; MDA-MB-231, 25–50 µM, 48 h, control 5.8%, mean of three experiments (Fig. 3c)): 19.0–26.3%"
"C=C1CC[C@H]2C(C)(C)CCC[C@]2(C)[C@H]1CC/C(C)=C/C(=O)N(C)O [Compound 4p, (E)-N-Hydroxy-N,3-dimethyl-5-((1S,4aS,8aS)-5,5,8a-trimethyl-2-methylenedecahydronaphthalen-1-yl)pent-2-enamide]",58.6 ± 1.2,1.2,35.7 ± 1.01,2.0,64.6 ± 0.76,1.1,96.67 ± 0.08,0.7,33.6 ± 0.54,2.1,61.4 ± 2.16,1.1,24.5 ± 0.61,2.8,3.72 ± 0.26,18.8,6.81 ± 1.99,10.2,,69.8 ± 1.24,
"C=C1CC[C@H]2C(C)(C)CCC[C@]2(C)[C@H]1CC/C(C)=C/C(=O)NCC(=O)OC [Compound 4q, Methyl ((E)-3-methyl-5-((1S,4aS,8aS)-5,5,8a-trimethyl-2-methylenedeca-hydronaphthalen-1-yl)pent-2-enoyl)glycinate]",81.1 ± 2.42,0.8,71.3 ± 2.07,0.9,73.89 ± 0.3,0.9,61.4 ± 2.03,1.1,39.1 ± 0.78,1.7,43.8 ± 3.08,1.5,46.2 ± 1.89,1.4,14.9 ± 0.32,4.4,26 ± 0.55,2.5,,65.29 ± 0.11,
"C=C1CCC2C(C)(C)CCCC2(C)C1CCC(C)=CC(=O)NCC(=O)OCC [Compound 4r, Ethyl ((E)-3-methyl-5-((1S,4aS,8aS)-5,5,8a-trimethyl-2-methylenedec-ahydronaphthalen-1-yl)pent-2-enoyl)glycinate]",72.3 ± 1.93,0.9,87.2 ± 6.02,0.7,61.3 ± 1.12,1.0,45.9 ± 1.8,1.4,36.6 ± 1.44,1.7,67.3 ± 2.09,0.9,23.4 ± 0.81,2.7,11.5 ± 1.13,5.6,23.9 ± 0.59,2.7,,63.9 ± 0.65,
"Cl.Cl.Cl.Cl.Nc1cc(N)c(N)cc1N [FAKi, 1,2,4,5-benzenetetraamine tetrahydrochloride, reference compound]",,,,,,,,,,,,,,,,,,,non-apoptotic cell death,,FAK phosphorylation (phospho-FAK (Y397); 16 μM): clearly inhibited
